Assays:
[1] = target: T1, hKV10.1a (Homo sapiens, UniProt O95259); experiment: Two-electrode voltage-clamp recordings of KV10.1 currents in Xenopus laevis oocytes; assay type: cell-based; settings: for KV10.1 inhibitory activity in words (structure-activity discussion): based on inhibition at 40 μM (Fig 5)
T1 construct: expressed in transfected cells; host or cells: Xenopus laevis oocytes injected with cRNA transcribed from the hKV10.1a-pSGEM plasmid
T1 sequence (O95259 1-962 isoform O95259-2): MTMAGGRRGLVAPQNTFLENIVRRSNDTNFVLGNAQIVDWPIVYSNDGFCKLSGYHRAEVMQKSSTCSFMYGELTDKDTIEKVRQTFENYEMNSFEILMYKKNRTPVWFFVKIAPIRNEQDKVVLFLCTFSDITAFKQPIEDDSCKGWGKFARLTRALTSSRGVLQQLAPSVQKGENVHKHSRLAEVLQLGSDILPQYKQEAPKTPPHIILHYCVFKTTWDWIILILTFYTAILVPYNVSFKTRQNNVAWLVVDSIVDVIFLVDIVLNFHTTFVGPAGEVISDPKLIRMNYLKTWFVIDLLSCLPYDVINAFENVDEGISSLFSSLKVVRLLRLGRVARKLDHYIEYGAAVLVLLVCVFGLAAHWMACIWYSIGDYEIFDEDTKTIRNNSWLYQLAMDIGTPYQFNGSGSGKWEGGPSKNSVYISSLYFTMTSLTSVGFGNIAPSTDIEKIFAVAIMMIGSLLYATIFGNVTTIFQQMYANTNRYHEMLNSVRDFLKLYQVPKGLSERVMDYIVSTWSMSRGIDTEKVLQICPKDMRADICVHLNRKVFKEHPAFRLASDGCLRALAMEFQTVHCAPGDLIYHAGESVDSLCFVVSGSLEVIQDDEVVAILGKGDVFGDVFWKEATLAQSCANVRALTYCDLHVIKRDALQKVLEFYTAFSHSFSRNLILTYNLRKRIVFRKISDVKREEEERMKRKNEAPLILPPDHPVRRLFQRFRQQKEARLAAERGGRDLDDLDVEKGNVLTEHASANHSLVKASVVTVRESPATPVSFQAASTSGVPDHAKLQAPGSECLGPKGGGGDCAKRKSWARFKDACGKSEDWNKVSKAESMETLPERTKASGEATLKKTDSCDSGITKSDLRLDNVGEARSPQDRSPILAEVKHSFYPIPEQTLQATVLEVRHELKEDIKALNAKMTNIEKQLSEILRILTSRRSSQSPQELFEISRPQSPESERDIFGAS
Description: For the expression of hKV10.1a (GeneBank accession number: NM_002238.3) in Xenopus oocytes, the hKV10.1a-pSGEM plasmid was linearized with SfiI (ThermoFisher Scientific, Waltham, Massachusetts, USA) and transcribed using the T7 mMESSAGE-mMACHINE transcription kit (Ambion®, Carlsbad, California, USA).
Stage V-VI Xenopus laevis (African clawed frog) oocytes were isolated by partial ovariectomy. Mature female animals were purchased from Nasco (Fort Atkinson, Wisconsin, USA) and were housed in the Aquatic Facility (KU Leuven) in compliance with the regulations of the European Union (EU) concerning the welfare of laboratory animals as declared in Directive 2010/63/EU. The use of Xenopus laevis was approved by the Animal Ethics Committee of the KU Leuven (Project nr. P038/2017). Prior to harvesting the oocytes, the animals were anesthetized by a 15-min submersion in 0.1% tricaine methanesulfonate (pH 7.0). Isolated oocytes were defolliculated with 1.5 mg/mL collagenase.
Defolliculated oocytes were injected with 4 nL of cRNA at a concentration of 1 ng/nL using a micro-injector (Drummond Scientific®, Broomall, Pennsylvania, USA). The oocytes were incubated in a solution containing (in mM): NaCl, 96; KCl, 2; CaCl2, 1.8; MgCl2, 2 and HEPES, 5 (pH 7.4), supplemented with 50 mg/L gentamycin sulfate.
Two-electrode voltage-clamp recordings were performed at room temperature (18–22°C) using a Geneclamp 500 amplifier (Molecular Devices, USA) controlled by a pClamp data acquisition system (Axon Instruments®, Union City, California, USA). Whole cell currents from oocytes were recorded 1–4 days after injection. Bath solution composition was (in mM): NaCl, 96; KCl, 2; CaCl2, 1.8; MgCl2, 2 and HEPES, 5 (pH 7.5). Voltage and current electrodes were filled with a 3 M solution of KCl in H2O. Resistances of both electrodes were kept between 0.5 and 1.5 MΩ. The elicited KV10.1 currents were filtered at 1 kHz and sampled at 2 kHz using a four-pole low-pass Bessel filter. Leak subtraction was performed using a -P/4 protocol. KV10.1 currents were evoked by 2-s depolarizing pulses to 0 mV from a holding potential of -90 mV unless otherwise indicated.
All electrophysiological data are presented as means ± S.E.M of n ≥ 3 independent experiments unless otherwise indicated. All data was analyzed using pClamp Clampfit 10.4 (Molecular Devices®, Downingtown, Pennsylvania, USA) and OriginPro 8 (Originlab®, Northampton, Massachusetts, USA) or GraphPad Prism 5 software (GraphPad Software, Inc., San Diego, California, USA).

[2] = 40 μM, extracellular perfusion, average ± SEM, read-out: KV10.1 current inhibition

| SMILES | melting point | inhibition at 40 µM [1, 2] | further results |
| --- | --- | --- | --- |
| COc1c(Cl)cc(C(=O)NCCc2cc(Br)c(CCCN(C)C)c(Br)c2)cc1Cl [Compound 23] | 91 to 95 °C |  |  |
| CNCCCOc1c(Br)cc(CCNC(=O)c2cc(Cl)c(OC)c(Cl)c2)cc1Br [Compound 45] | 86 to 97 °C | 39 ± 7% |  |
| COc1ccc(C(=O)NCCc2cc(Br)c(OCCCN(C)C)c(Br)c2)cc1OC [Compound 31] |  | 44 ± 4% |  |
| COc1ccc(C(=O)NCCc2cc(Br)c(OCCCN(C)C)c(Br)c2)cc1F [Compound 27] | 83 to 89 °C | 65 ± 1% |  |
| COCC(=O)O[C@]1(CCN(C)CCCc2nc3ccccc3[nH]2)CCc2cc(F)ccc2[C@@H]1C(C)C [mibefradil, reference compound] |  |  | inhibition at 10 µM ([1]; 10 μM, 2-s depolarizing pulses to 0 mV from -90 mV, read-out: KV10.1 current inhibition): 50 ± 5% |
| CNCCCOc1c(Br)cc(CCNC(=O)c2cc(F)c(OC)c(F)c2)cc1Br [Compound 46] | 87 to 92 °C | 14 ± 5% |  |
| CCOc1c(Cl)cc(C(=O)NCCc2cc(Br)c(CCCN(C)C)c(Br)c2)cc1Cl [Compound 24] | 73 to 75 °C |  |  |
| CC(C)CCCOc1c(Br)cc(CCNC(=O)c2cc(Br)cc(Br)c2)cc1Br [Compound 32] | 123 to 124 °C | 0% | KV10.1 inhibitory activity in words (structure-activity discussion) [1]: total loss of the activity |
| CNCCCOc1c(Br)cc(CCNC(=O)c2ccc(OC)c(Cl)c2)cc1Br [Compound 44] |  | 58 ± 1% |  |
| CN(C)CCCc1c(Br)cc(CCNC(=O)c2cc(Cl)cc(Cl)c2)cc1Br [Compound 16] | 83 to 84.5 °C |  |  |
| CN(C)CCCOc1c(Br)cc(CCNC(=O)c2cc(F)cc(F)c2)cc1Br [Compound 18] |  | 35 ± 2% |  |
| CN(C)CCCOc1ccc(CCNC(=O)c2cc(Cl)cc(Cl)c2)cc1 [Compound 35] |  | 4 ± 4% | KV10.1 inhibitory activity in words (structure-activity discussion) [1]: abolished the activity |
| COc1ccc(C(=O)NCCc2cc(Br)c(OCCCN(C)C)c(Br)c2)cc1Br [Compound 25] |  | 80 ± 4% |  |
| CN(C)CCCOc1c(Br)cc(CCNC(=O)c2cncc(Br)c2)cc1Br [Compound 15] |  | 50 ± 3% |  |
| COc1c(Br)cc(C(=O)NCCc2cc(Br)c(CCCN(C)C)c(Br)c2)cc1Br [Compound 26] | 83 to 85 °C |  |  |
| COc1ccc(C(=O)NCCc2cc(Br)c(OCCCN(C)C)c(Br)c2)cc1I [Compound 29] |  | 79 ± 2% |  |
| CC(C)CCCOc1c(Br)cc(CCNC(=O)c2cc(Cl)cc(Cl)c2)cc1Br [Compound 33] | 107.5 to 109 °C | 0% | KV10.1 inhibitory activity in words (structure-activity discussion) [1]: total loss of the activity |
| COc1c(F)cc(C(=O)NCCc2cc(Br)c(CCCN(C)C)c(Br)c2)cc1F [Compound 28] | 93 to 96 °C |  |  |
| CN(C)CCCOc1c(Br)cc(CCNC(=O)c2ccc(Br)cc2)cc1Br [Compound 14] |  | 22 ± 3% |  |
| O=C(NCCc1ccc(O)cc1)c1cc(Cl)cc(Cl)c1 [Compound 34] |  |  | KV10.1 current inhibition ([1]; 40 μM, extracellular perfusion, average ± SEM): 0 ± 0% |
| CNCCCOc1c(Br)cc(CCNC(=O)c2ccc(OC)cc2)cc1Br [Compound 43] | 89 to 97 °C | 9 ± 5% |  |
| COc1ccc(C(=O)NCCc2cc(Br)c(CCCN(C)C)c(Br)c2)cc1 [Compound 21] | 106 to 109 °C |  |  |
| CN(C)CCCOc1c(Br)cc(CCNC(=O)c2ccccc2Br)cc1Br [Compound 12] |  | 27 ± 4% |  |
| CN(C)CCCOc1c(Br)cc(CCNC(=O)c2ccccc2F)cc1Br [Compound 19] | 70 to 72 °C | 32 ± 4% |  |
| COc1ccc(C(=O)NCCc2cc(Br)c(OCCCN(C)C)c(Br)c2)cc1C [Compound 30] |  | 80 ± 2% |  |

From publication PMC5722316, “Synthesis of novel purpurealidin analogs and evaluation of their effect on the cancer-relevant potassium channel KV10.1” (PLoS ONE, 2017)
